Measured values as given in US6740639B1, “Inclusion complees of a high potent opioid peptide, pharmaceutical compositions and method of treatment” (Council of Scientific & Industrial Research, priority 2000, dated 2004).
Non-standard residues stand in square brackets, D forms with d. No end group written: not given here. Phe(4-NO2) = N[C@@H](Cc1ccc([N+](=O)[O-])cc1)C(=O)O

Assays:
μ and δ receptors = details: cited from earlier work
[1] = cited from earlier work; for analgesic effect: systemic route of administration; for analgesic potency compared with morphine: systemic administration
leucine amino peptidase = details: enzyme hydrolysis with leucine amino peptidase; cited from earlier work
LD50 in mice = details: mouse, in vivo, ip
Procedure: It is evident from above table that the ED50 of beta CD complex is about one third than the compound L-Tyrosyl-D-alanyl-glycyl-N-methylphenylalanyl-glycyl-isopropylamide by subcutaneous route and was one half by oral route. The LD50 of the compound L-Tyrosyl-D-alanyl-glycyl-N-methylphenylalanyl-glycyl-isopropylamide is 1000 mg/Kg i.p., and that of the complex is >10,000 mg/kg P. O. in mice.

rats = assay: 30 days toxicity study by subcutaneous route in rat; type: in vivo; details: s.c. once daily 30 days, 7.5, 15.0 and 30.0 mg/kg
Procedure: (§1) 30 days toxicity study or L-Tyrosyl-D-alanyl-glycyl-N-methylphenylalanyl-glycyl-isopropylamide in rat and rhesus monkey by subcutaneous route.
(§2) Compound L-Tyrosyl-D-alanyl-glycyl-N-methylphenytalanyt-glycyl-isopropylamide dissolved in saline was given daily by subcutaneous route to groups of rats (n=10 males and 10 females in each group) and rhesus monkeys ([…] and 2 females in each group) once daily for 30 consecutive days. The dose levels used in rats were 0.0, 7.5, 15.0 and 30.0 mg/kg and in monkeys 0.0, 3.75, 7.5 and 15 mg/kg. Dose levels were selected on the basis of rat ED of 3.0 mg/kg and extrapolation thereof in the monkey.
(§3) A careful general inspection of the animals was done at least once each day Cage-side observations included changes in skin and fur, eyes and mucous membranes, general activity and behavior and also general signs of abnormal functioning of respiratory, circulators, autonomic and central nervous system and somatomotor activity. Body weights (weekly in rats initial and day 30 in monkeys), daily food (rat and monkeys) and water (rat only) consumption and parameters of hematology urinalysis and blood biochemistry of the animals was recorded All the animals were sacrificed at the end of 30 days. Necropsy was performed and histophathological examination of all the important organs and tissues were done. […]

rhesus monkeys = assay: 30 days toxicity study by subcutaneous route in rhesus monkey; type: in vivo; details: s.c. once daily 30 days, 3.75, 7.5 and 15 mg/kg
Procedure: as §1, §2, §3

[2] = Chronic and subacute toxicity studies (background); details: in vivo
[3] = Addiction liabilities and tolerance (background); type: in vivo; details: compared to morphine
[4] = CNS and cardiovascular effects (background); details: in vivo

For Tyr-D-Ala-Gly,-Met(o)-01 [FK-33-824], the opioid receptor selectivity (μ and δ receptors) is listed as “only slight preference for p-receptors” and the analgesic effect [1] is listed as “strong analgesic effect”.

In the case of Leu-enkephalin, the half life (leucine amino peptidase) is given as 45 min.

In the case of “Tyr-Arg-Gly-Phe(pNO2)-Pro-NH2 (YRG[Phe(4-NO2)]P-NH2; N-terminus assumed; SMILES N=C(N)NCCC[C@H](NC(=O)[C@@H](N)Cc1ccc(O)cc1)C(=O)NCC(=O)N[C@@H](Cc1ccc([N+](=O)[O-])cc1)C(=O)N1CCC[C@H]1C(N)=O) [BW-443C, enkephalin analog]”, the “analgesic potency compared with morphine” value [1] is listed as “more potent analgesic than morphine”.

In the case of Y[dM]GFP-NH2, the “analgesic potency compared with morphine” value [1] is given as “more potent analgesic than morphine”.

With `CC(C)NC(=O)CNC(=O)[C@H](Cc1ccccc1)N(C)C(=O)CNC(=O)[C@@H](C)NC(=O)[C@@H](N)Cc1ccc(O)cc1` [L-Tyrosyl-D-alanyl-glycyl-N-methylphenylalanyl-glycyl-isopropylamide] the LD50 (LD50 in mice) was 1000 mg/kg, the 30-day toxicity finding (rats) was “safe” and the 30-day toxicity finding (rhesus monkeys) was “safe”. For the same compound, the “chronic and subacute toxicity finding” value [2] was “safe and did not produce any noticeable toxic side effects”, the “tolerance and addiction properties” value [3] was “significantly reduced tolerance and addiction properties as compared to morphine” and the “CNS effects like sedation and respiratory depression” value [4] was “virtually devoid of any major CNS effects”. For the same compound, the cardiovascular effects [4] was “virtually devoid of any significant cardiovascular effects”.

In the case of “Tyr-D-Ala-Gly-Phe-MeMet-NH2 [met-kephamid]”, the opioid receptor selectivity (μ and δ receptors) is given as “essentially non-elective for μ and δ receptors” and the analgesic effect [1] is given as “strong analgesic effect”.
